This is an account of results in patent US9346810B2, “Pyrrolopyrimidine compounds and uses thereof” (HUTCHISON MEDIPHARMA LIMITED, priority 2010, dated 2016).

By IC50 is commonly meant the concentration that inhibits the measured activity by half.

Assay type in all cases: biochemical
In assay [1] the target is Recombinant human JAK1 catalytic domain (Homo sapiens (Human), UniProt P23458). Put plainly: JAK1 kinase assay (Z'-LYTE, Tyr 6 Peptide). The procedure: (§1) JAK1/2/3 kinase assay are performed in vitro using Kit-Tyr 6 Peptide (Invitrogen, Cat. No. PV4122). TYK2 kinase assay are performed in vitro using Z′-LYTE™ Kinase Assay Kit-Tyr 3 Peptide (Invitrogen, Cat. No. PV3192). […] All compounds are initially tested at 8 different concentrations (1 μM down to 0.0003 μM) using a 1:3 serial dilution scheme.

Assay [2] has as its target Recombinant human JAK2 catalytic domain (Homo sapiens (Human), UniProt O60674). Put plainly: JAK2 kinase assay (Z'-LYTE, Tyr 6 Peptide). As to conditions: read-out: IC50 in JAK2 kinase assay. The procedure:
as §1

Assay [3] deals with Recombinant human JAK3 catalytic domain (Homo sapiens (Human), UniProt P52333). Put plainly: JAK3 kinase assay (Z'-LYTE, Tyr 6 Peptide). The procedure:
as §1

Where [4] appears, read: read-out: IC50 in JAK1 kinase assay.
The mark [5] stands for this setting: read-out: IC50 in JAK3 kinase assay.

Read-outs that look alike come from different tables or passages of the source.

Chain of Recombinant human JAK1 catalytic domain (P23458 875-1153): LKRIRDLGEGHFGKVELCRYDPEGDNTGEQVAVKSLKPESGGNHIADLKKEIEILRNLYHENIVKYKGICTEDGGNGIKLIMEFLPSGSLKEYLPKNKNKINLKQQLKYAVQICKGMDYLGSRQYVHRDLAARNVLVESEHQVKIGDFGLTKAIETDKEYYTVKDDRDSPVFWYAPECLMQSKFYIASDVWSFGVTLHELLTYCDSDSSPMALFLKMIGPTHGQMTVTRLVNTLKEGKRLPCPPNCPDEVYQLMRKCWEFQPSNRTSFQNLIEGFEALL
Chain of Recombinant human JAK3 catalytic domain (P52333 822-1111): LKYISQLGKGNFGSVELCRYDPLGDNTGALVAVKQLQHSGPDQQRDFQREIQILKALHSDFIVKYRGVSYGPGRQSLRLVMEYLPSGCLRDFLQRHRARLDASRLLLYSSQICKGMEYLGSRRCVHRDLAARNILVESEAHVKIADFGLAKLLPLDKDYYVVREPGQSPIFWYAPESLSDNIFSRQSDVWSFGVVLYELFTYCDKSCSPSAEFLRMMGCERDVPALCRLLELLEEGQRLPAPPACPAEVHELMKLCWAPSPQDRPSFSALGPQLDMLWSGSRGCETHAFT
Chain of Recombinant human JAK2 catalytic domain (O60674 849-1124): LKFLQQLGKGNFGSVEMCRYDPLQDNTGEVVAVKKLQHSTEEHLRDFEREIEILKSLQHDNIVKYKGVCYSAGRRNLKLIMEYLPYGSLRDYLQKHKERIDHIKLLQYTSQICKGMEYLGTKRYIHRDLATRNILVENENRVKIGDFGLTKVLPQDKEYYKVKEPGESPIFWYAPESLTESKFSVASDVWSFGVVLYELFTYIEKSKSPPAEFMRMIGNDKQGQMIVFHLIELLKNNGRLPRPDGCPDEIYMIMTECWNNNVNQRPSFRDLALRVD

On to `Cc1nc(N(C)[C@@H]2CCN(c3ncnc4[nH]ccc34)C2)ccc1C#N` [Compound 155], for which the IC50 in assay [1] (setting [4]) and in assay [2] was 1 to 100 nM in each case.

As for `CN(c1ccc(S(=O)(=O)NC(C)(C)C)cn1)[C@@H]1CCN(c2ncnc3[nH]ccc23)C1` [Compound 238], the IC50 in assay [1] (setting [4]) lay within 1 to 100 nM.

Take `CC(C)S(=O)(=O)Nc1ccc(N(C)[C@@H]2CCN(c3ncnc4[nH]ccc34)C2)nc1` [Compound 218]: the IC50 lay in the range of 1 to 100 nM in assay [1] (setting [4]) and 100 to 1000 nM in assay [2].

With `CN(C(=O)N1CCCC1)[C@@H]1CCN(c2ncnc3[nH]ccc23)C1` [Compound 37], the 50% inhibitory concentration (IC50) in assay [1] (setting [4]) lay within 1 to 100 nM.

As for `CN(c1ccc(NS(C)(=O)=O)cn1)[C@@H]1CCN(c2ncnc3[nH]ccc23)C1` [Compound 217], the IC50 in assay [1] (setting [4]) was in the range of 1 to 100 nM; in assay [2], 100 to 1000 nM.

As for `CN(c1ccc(S(=O)(=O)N2CCNCC2)cn1)[C@@H]1CCN(c2ncnc3[nH]ccc23)C1` [Compound 251], the IC50 in assay [1] (setting [4]) is 1 to 100 nM.

Take `COc1nc(N(C)[C@@H]2CCN(c3ncnc4[nH]ccc34)C2)ccc1C#N` [Compound 42]: the IC50 in assay [1] (setting [4]), in assay [2] and in assay [3] (setting [5]) was 1 to 100 nM in each case.

For `COCCNS(=O)(=O)c1ccc(N(C)[C@@H]2CCN(c3ncnc4[nH]ccc34)C2)nc1` [Compound 237], in assay [1] (setting [4]), the IC50 is 1 to 100 nM.

Turning to `CN(c1ccc(S(=O)(=O)NC2CC2)cn1)[C@@H]1CCN(c2ncnc3[nH]ccc23)C1` [Compound 236], the IC50 in assay [1] (setting [4]), in assay [2] and in assay [3] (setting [5]) was 1 to 100 nM each time.

In the case of `CN(c1ccnc(C#N)c1)[C@@H]1CCN(c2ncnc3[nH]ccc23)C1` [Compound 121], the IC50 in assay [1] (setting [4]), in assay [2] and in assay [3] (setting [5]) was 1 to 100 nM each time.

In the case of `CN(c1ccc(S(=O)(=O)NC[C@H]2CCCO2)cn1)[C@@H]1CCN(c2ncnc3[nH]ccc23)C1` [Compound 241], the IC50 in assay [1] (setting [4]) and in assay [2] was 1 to 100 nM throughout.

Consider `CN(c1ccc(NS(=O)(=O)Cc2ccccc2F)cn1)[C@@H]1CCN(c2ncnc3[nH]ccc23)C1` [Compound 219], for which, in assay [1] (setting [4]), the IC50 fell in the range of 1 to 100 nM.

In the case of `CN(c1ccc(-c2ccncc2)cn1)[C@@H]1CCN(c2ncnc3[nH]ccc23)C1` [Compound 144, (R)—N-(1-(7H-pyrrolo[2,3-d]pyrimidin-4-yl)pyrrolidin-3-yl)-N-methyl-3,4′-bipyridin-6-amine], the IC50 in assay [1] (setting [4]) lay within 1 to 100 nM.

In the case of `Cc1cc(N(C)[C@@H]2CCN(c3ncnc4[nH]ccc34)C2)ncc1[N+](=O)[O-]` [Compound 77], the values for the IC50 in assay [1] (setting [4]), in assay [2] and in assay [3] (setting [5]) were 1 to 100 nM, 100 to 1000 nM and 100 to 1000 nM, respectively.

In the case of `C#CCN(c1cnc(C#N)cn1)[C@@H]1CCN(c2ncnc3[nH]ccc23)C1` [Compound 127], the IC50 in assay [1] (setting [4]) is 1 to 100 nM.

For the molecule `CN(c1ccc(S(=O)(=O)Nc2ccc(F)cc2)cn1)[C@@H]1CCN(c2ncnc3[nH]ccc23)C1` [Compound 253], in assay [1] (setting [4]), the IC50 is 1 to 100 nM.

For the molecule `CNS(=O)(=O)c1ccc(N(C)[C@@H]2CCN(c3ncnc4[nH]ccc34)C2)nc1` [Compound 239], the IC50 fell in the range of 1 to 100 nM in assay [1] (setting [4]) and 100 to 1000 nM in assay [2].

On to `CN(c1ccc(C#N)cc1)[C@@H]1CCN(c2ncnc3[nH]ccc23)C1` [Compound 104], for which the IC50 in assay [1] (setting [4]) is 1 to 100 nM; in assay [2], 1 to 100 nM; in assay [3] (setting [5]), 100 to 1000 nM.

`CN(c1ccc(S(=O)(=O)NCCO)cn1)[C@@H]1CCN(c2ncnc3[nH]ccc23)C1` [Compound 243]: the IC50 is 1 to 100 nM in assay [1] (setting [4]) and 100 to 1000 nM in assay [2].

`CN(c1ccc(S(=O)(=O)N[C@@H]2c3ccccc3C[C@H]2O)cn1)[C@@H]1CCN(c2ncnc3[nH]ccc23)C1` [Compound 233]: the concentration for half-maximal inhibition (IC50) in assay [1] (setting [4]) lay within 1 to 100 nM.

For `CN(C(=O)NC1CCOCC1)[C@@H]1CCN(c2ncnc3[nH]ccc23)C1` [Compound 36], the IC50 in assay [1] (setting [4]) was 1 to 100 nM.

Turning to `CN(c1ccc(-c2nn[nH]n2)cc1F)[C@@H]1CCN(c2ncnc3[nH]ccc23)C1` [Compound 161], the IC50 in assay [1] (setting [4]) and in assay [2] was 1 to 100 nM throughout.

`CN(c1ccc(S(=O)(=O)NC2CCOCC2)cn1)[C@@H]1CCN(c2ncnc3[nH]ccc23)C1` [Compound 259]: the IC50 in assay [1] (setting [4]) was in the range of 1 to 100 nM; in assay [2] it was 100 to 1000 nM.

With `CN(c1ccc(S(=O)(=O)N2CCOCC2)cn1)[C@@H]1CCN(c2ncnc3[nH]ccc23)C1` [Compound 252], the values for the IC50 in assay [1] (setting [4]) and in assay [2] were 1 to 100 nM and 100 to 1000 nM, respectively.

`CN(C(=O)Nc1cccc(C#N)c1)[C@@H]1CCN(c2ncnc3[nH]ccc23)C1` [Compound 16, (R)-1-(1-(7H-pyrrolo[2,3-d]pyrimidin-4-yl)pyrrolidin-3-yl)-3-(3-cyanophenyl)-1-methylurea]: the IC50 was in the range of 1 to 100 nM in assay [1] (setting [4]) and 100 to 1000 nM in assay [2].

On to `CN(c1ccc(S(=O)(=O)NC2COC2)cn1)[C@@H]1CCN(c2ncnc3[nH]ccc23)C1` [Compound 242], for which the half-maximal inhibitory concentration (IC50) in assay [1] (setting [4]) and in assay [2] was 1 to 100 nM each time.

With `CN(c1ccc(C(F)(F)F)cn1)[C@@H]1CCN(c2ncnc3[nH]ccc23)C1` [Compound 123], the IC50 in assay [1] (setting [4]) and in assay [2] was 1 to 100 nM each time.

For the molecule `CN(c1cc2cn[nH]c2cn1)[C@@H]1CCN(c2ncnc3[nH]ccc23)C1` [Compound 125, (R)—N-(1-(7H-pyrrolo[2,3-d]pyrimidin-4-yl)pyrrolidin-3-yl)-N-methyl-1H-pyrazolo[3,4-c]pyridin-5-amine], the IC50 in assay [1] (setting [4]) and in assay [2] was 1 to 100 nM throughout.

In the case of `CN(C(=O)CCc1c(Cl)cccc1Cl)[C@@H]1CCN(c2ncnc3[nH]ccc23)C1` [Compound 21], the IC50 in assay [1] (setting [4]) was 1 to 100 nM.

With `CN(c1ccc(C(=O)NC[C@H](O)c2ccccc2)cc1F)[C@@H]1CCN(c2ncnc3[nH]ccc23)C1` [Compound 202], the half-inhibitory concentration (IC50) in assay [1] (setting [4]) and in assay [2] was 1 to 100 nM each time.

Take `N#Cc1ccc(N(CC2CC2)[C@@H]2CCN(c3ncnc4[nH]ccc34)C2)nc1` [Compound 124]: the IC50 in assay [1] (setting [4]) and in assay [2] was 1 to 100 nM each time.

In the case of `CN(c1ccncn1)[C@@H]1CCN(c2ncnc3[nH]ccc23)C1` [Compound 154, (R)—N-(1-(7H-pyrrolo[2,3-d]pyrimidin-4-yl)pyrrolidin-3-yl)-N-methylpyrimidin-4-amine], the IC50 in assay [1] (setting [4]) was 1 to 100 nM; in assay [2] it was 100 to 1000 nM.

For `CN(c1ccc(S(=O)(=O)NC2CCC[C@@H]2O)cn1)[C@@H]1CCN(c2ncnc3[nH]ccc23)C1` (stereo partly drawn) [Compound 246], the IC50 in assay [1] (setting [4]) is 1 to 100 nM.

On to `COc1cc2ncnc(N(C)[C@@H]3CCN(c4ncnc5[nH]ccc45)C3)c2cc1OC` [Compound 86], for which the 50% inhibitory concentration (IC50) lay in the range of 1 to 100 nM in assay [1] (setting [4]), 1 to 100 nM in assay [2] and 100 to 1000 nM in assay [3] (setting [5]).

Turning to `CN(c1ccc(NS(=O)(=O)c2cccnc2)cn1)[C@@H]1CCN(c2ncnc3[nH]ccc23)C1` [Compound 215], the IC50 in assay [1] (setting [4]) was 1 to 100 nM.

For `CN(C(=O)Nc1ccc(C(F)(F)F)cc1)[C@@H]1CCN(c2ncnc3[nH]ccc23)C1` [Compound 30], the IC50 in assay [1] (setting [4]) was 1 to 100 nM; in assay [2] it was 100 to 1000 nM.

With `CN(c1ccc(C#N)cn1)[C@@H]1CCN(c2ccnc3[nH]ccc23)C1` [Compound 92], the values for the IC50 in assay [2] and in assay [3] (setting [5]) were 1 to 100 nM and 100 to 1000 nM, respectively.

Consider `C#CCN(c1ccc(C#N)cn1)[C@@H]1CCN(c2ncnc3[nH]ccc23)C1` [Compound 128], for which the IC50 in assay [1] (setting [4]) and in assay [2] was 1 to 100 nM throughout.

For the molecule `CN(c1ccc(Br)cn1)[C@@H]1CCN(c2ncnc3[nH]ccc23)C1` [Compound 68], the IC50 in assay [1] (setting [4]) fell in the range of 1 to 100 nM; in assay [2], 100 to 1000 nM.

With `CN(c1ccc(S(=O)(=O)C(F)(F)F)cc1)[C@@H]1CCN(c2ncnc3[nH]ccc23)C1` [Compound 122], the IC50 in assay [1] (setting [4]) and in assay [2] was 1 to 100 nM each time.

`CN(c1ccc(S(=O)(=O)N2CCCC2)cn1)[C@@H]1CCN(c2ncnc3[nH]ccc23)C1` [Compound 247]: in assay [1] (setting [4]), the IC50 lay within 1 to 100 nM.

For `CN(c1ccc(NS(=O)(=O)c2cccs2)cn1)[C@@H]1CCN(c2ncnc3[nH]ccc23)C1` [Compound 214], in assay [1] (setting [4]), the IC50 is 1 to 100 nM.

Take `CCS(=O)(=O)N(C)[C@@H]1CCN(c2ncnc3[nH]ccc23)C1` [Compound 48]: the IC50 in assay [2] fell in the range of 1 to 100 nM; in assay [3] (setting [5]) it was 100 to 1000 nM.

In the case of `CN(c1ccc(S(=O)(=O)NCc2ccc(F)cc2)cn1)[C@@H]1CCN(c2ncnc3[nH]ccc23)C1` [Compound 254], the IC50 in assay [1] (setting [4]) was 1 to 100 nM.

As to `CN(C(=O)Nc1ccc(Cl)cc1)[C@@H]1CCN(c2ncnc3[nH]ccc23)C1` [Compound 33], in assay [1] (setting [4]), the IC50 fell in the range of 1 to 100 nM.

As for `CN(c1ccc(Cl)cn1)[C@@H]1CCN(c2ncnc3[nH]ccc23)C1` [Compound 67], the IC50 in assay [1] (setting [4]), in assay [2] and in assay [3] (setting [5]) was 1 to 100 nM throughout.

For `CN(c1cc(F)c(C#N)c(F)c1)[C@@H]1CCN(c2ncnc3[nH]ccc23)C1` [Compound 106], in assay [1] (setting [4]), the IC50 was 1 to 100 nM.

Regarding `C[C@H](O)CNS(=O)(=O)c1ccc(N(C)[C@@H]2CCN(c3ncnc4[nH]ccc34)C2)nc1` [Compound 245], the IC50 in assay [1] (setting [4]) was 1 to 100 nM.

For `CN(c1cccc(C#N)c1)[C@@H]1CCN(c2ncnc3[nH]ccc23)C1` [Compound 119, (R)-3-((1-(7H-pyrrolo[2,3-d]pyrimidin-4-yl)pyrrolidin-3-yl)(methyl)amino)benzonitrile], in assay [1] (setting [4]), the IC50 fell in the range of 1 to 100 nM.

`CN(c1ccc(C(=O)Nc2nccs2)cn1)[C@@H]1CCN(c2ncnc3[nH]ccc23)C1` [Compound 199]: the concentration for half-maximal inhibition (IC50) in assay [1] (read-out: JAK1 (enzyme, IC50)) was 14 nM; in assay [3] (read-out: JAK3 (enzyme, IC50)), 522 nM.
